Test results published in PubChem BioAssay (NCI).
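Each compound was tested at five concentrations against cells in 96-well plates for 48 hours. TGI: total growth inhibition.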

Key:
Experiment in all cases: NCI-60 cell line screen, 48 h
BT-549 breast = test system: BT-549 breast
DU-145 prostate = test system: DU-145 prostate
EKVX NSCLC = test system: EKVX NSCLC
KM12 colon = test system: KM12 colon
NCI-H23 lung = test system: NCI-H23 lung
NCI-H522 lung = test system: NCI-H522 lung
PC-3 prostate = test system: PC-3 prostate
SF-539 CNS = test system: SF-539 CNS
SK-MEL-2 melanoma = test system: SK-MEL-2 melanoma
SN12C renal = test system: SN12C renal
T-47D breast = test system: T-47D breast

Structure (SMILES)	TGI (BT-549 breast)	TGI (DU-145 prostate)	TGI (EKVX NSCLC)	TGI (KM12 colon)	TGI (NCI-H23 lung)	TGI (NCI-H522 lung)	TGI (PC-3 prostate)	TGI (SF-539 CNS)	TGI (SK-MEL-2 melanoma)	TGI (SN12C renal)	TGI (T-47D breast)
COc1ccc2c(c1)/C(=C\c1cccc(/C=C3/C(=O)Nc4ccc(OC)cc43)n1)C(=O)N2	6.39 µM	9.73 µM	> 40.3 µM	4.64 µM	2.6 µM	6.9 µM	8.91 µM	5.7 µM	15.5 µM	4.91 µM	2.53 µM
CC(C)N1CCCOC(c2ccc([N+](=O)[O-])cc2)O1 (stereo not drawn)	> 100 µM	> 100 µM	> 100 µM	> 100 µM	> 100 µM	> 100 µM	> 100 µM	> 100 µM	> 100 µM	> 100 µM	> 100 µM
CCCCCNC1=CC(=O)c2ccccc2C1=O	46 µM	> 100 µM	> 100 µM	> 100 µM	58.3 µM	44.3 µM	> 100 µM	41 µM	53.6 µM	> 100 µM	> 82.6 µM
CCn1c(SCC(=O)NNC(=S)Nc2ccc(F)cc2)nc2ccccc2c1=O	> 100 µM	> 100 µM	> 100 µM	> 100 µM	> 100 µM	> 100 µM	> 100 µM	> 100 µM	> 100 µM	> 100 µM	> 100 µM
Nc1nncs1	> 5000 µM	> 5000 µM	> 5000 µM	> 5000 µM	> 4730 µM	4690 µM	> 5000 µM	> 5000 µM	> 5000 µM	> 5000 µM	> 4800 µM
CC(C)(CCCCC(C)(C)NCC1COc2ccccc2O1)NCC1COc2ccccc2O1 (stereo not drawn)	> 10 µM	> 10 µM	> 10 µM	> 10 µM	> 10 µM	> 10 µM	> 10 µM	3.34 µM	6.68 µM	> 10 µM	> 10 µM
CC(CCC(=O)O)[C@H]1CCC2[C@H]3C(CC(=O)[C@@]21C)[C@@]1(C)CCC(O)C[C@H]1C[C@@H]3O (stereo partly drawn)	> 100 µM	> 100 µM	> 100 µM	> 100 µM	> 100 µM	> 100 µM	> 100 µM	> 100 µM	> 100 µM	> 100 µM	> 100 µM
CCCCc1ccc(N2C(=O)c3cccnc3S2(=O)=O)cc1	> 100 µM	> 100 µM	> 100 µM	> 100 µM	> 100 µM	> 100 µM	> 100 µM	> 100 µM	> 100 µM	> 100 µM	> 100 µM
